Experimental data reported in patent US8067021B2, “Methods and compositions for delivery of growth factor to fibrous connective tissue” (Affinergy, Inc., priority 2007, dated 2011).
Where a SMILES comes first, the peptide text is derived from it. The star is where a group is joined. Biotin = O=C1N[C@H]2[C@H](CS[C@H]2CCCCC(=O)*)N1

Legend:
various growth factors = assay: Further binding studies: preference of binding for various growth factors; conditions: latter 3 growth factors: no detectable binding
Method: Since GDFs are also considered as members of the BMP family of proteins, and therefore share significant amino acid sequence homology, some binding cross-reactivity of peptides according to the presently disclosed subject matter with BMP-5 was noted. […] Further binding studies were performed from which was determined the preference of binding of peptides according to the presently disclosed subject matter for various growth factors. […] Thus peptides according to the presently disclosed subject matter show preferential binding to GDF-7, and show binding affinity for fibrous connective tissue-inducing growth factors.

GDF-7 = biological target: T1, GDF-7 (Mus musculus, UniProt P43029); assay: GDF-7 binding by composition immobilized on polyethylene terephthalate suture; conditions: 0.5 μM of the conjugate, relative to assay background
T1 construct: purchased R&D SYSTEMS
T1 sequence (P43029 316-461): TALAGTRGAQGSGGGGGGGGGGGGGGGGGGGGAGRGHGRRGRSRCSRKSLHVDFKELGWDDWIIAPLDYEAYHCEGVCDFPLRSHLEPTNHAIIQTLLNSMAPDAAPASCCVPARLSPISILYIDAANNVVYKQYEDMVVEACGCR
Excerpt: Using standard methods for peptide synthesis, amino acid sequences comprising SEQ ID NO:1-3 and SEQ ID NO: 67 were synthesized to contain an amino acid linker sequence (e.g., GSSGK, SEQ ID NO:72) at the C-terminus to which was linked biotin (via the lysine residue). See, for example, SEQ ID NOs: 73-76. Streptavidin (having 4 biotin binding sites) was used in conjunction with the biotin on the biotinylated peptides to form a linker between the two different peptide components. […]
Each of the three representative compositions according to the presently disclosed subject matter or the control conjugate were added individually to respective wells containing a suture and containing GDF-7 in various concentrations (starting at 100 nM final concentration for the compositions; 0.5 μM of the conjugate) with high salt buffer-T, and incubated for 1 hour at room temperature. […] It was determined in these experiments that maximal growth factor binding to the composition occurs within the first several minutes (e.g., within a time period ranging from 5 to 10 minutes), and that no additional GDF-7 appears to be retained to the surface of the implant in a time period of up to 1 hour of contact with the implant.

[1] = Binding of surface-binding peptide to suture material; conditions: braided polyethylene terephthalate fibers
Excerpt: To illustrate this embodiment, a linker was used to couple a peptide having binding affinity for a surface of an implant with a peptide having binding affinity for fibrous connective tissue-inducing growth factor. […] Similarly, peptides having amino acid sequences of SEQ ID NOs: 1-3 were used individually as representative peptides having binding affinity for fibrous connective tissue-inducing growth factor, and for inclusion as a component in a composition according to the presently disclosed subject matter.

Compound	preference for binding affinity (from highest relative binding affinity to lowest) (various growth factors)	other results
CSCC[C@H](NC(=O)CNC(=O)[C@H](CCC(=O)O)NC(=O)[C@H](Cc1c[nH]c2ccccc12)NC(=O)[C@H](CO)NC(=O)[C@H](CCCNC(=N)N)NC(=O)[C@H](CC(C)C)NC(=O)[C@H](C)NC(=O)[C@H](Cc1c[nH]c2ccccc12)NC(=O)[C@H](CCC(=O)O)NC(=O)[C@H](C)NC(=O)[C@@H](NC(=O)[C@H](CO)NC(=O)[C@@H](N)CO)C(C)C)C(=O)N[C@@H](CCCNC(=N)N)C(=O)N[C@H](C(=O)NCC(=O)N[C@@H](CCC(=O)O)C(=O)N[C@@H](C)C(=O)N[C@@H](CO)C(=O)N[C@@H](CCCNC(=N)N)C(=O)NCC(=O)N[C@@H](CO)C(=O)N[C@@H](CO)C(=O)NCC(=O)N[C@@H](CCCCNC(=O)CCCC[C@@H]1SC[C@@H]2NC(=O)N[C@@H]21)C(N)=O)C(C)C [SEQ ID NO: 3, ssVAEWALRSWEGMRVGEAsr] (H-SSVAEWALRSWEGMRVGEASRGSSGK(Biotin)-NH2; N-terminus and C-terminus assumed)	GDF-7>GDF-5, BMP-2>BMP-6>BMP-5>TGF-β1, TGF-β3, or PDGF-BB	
CC[C@H](C)[C@H](NC(=O)[C@H](CCC(=O)O)NC(=O)[C@H](CCCNC(=N)N)NC(=O)[C@@H]1CCCN1C(=O)CNC(=O)[C@H](CO)NC(=O)[C@@H](N)CO)C(=O)N[C@@H](Cc1c[nH]c2ccccc12)C(=O)N[C@@H](CC(=O)O)C(=O)N[C@@H](CO)C(=O)N[C@@H](CC(C)C)C(=O)N[C@H](C(=O)NCC(=O)N[C@H](C(=O)N[C@H](C(=O)N[C@@H](CC(N)=O)C(=O)N1CCC[C@H]1C(=O)NCC(=O)N[C@@H](Cc1c[nH]c2ccccc12)C(=O)N[C@@H](CO)C(=O)N[C@@H](CCCNC(=N)N)C(=O)NCC(=O)N[C@@H](CO)C(=O)N[C@@H](CO)C(=O)NCC(=O)N[C@@H](CCCCNC(=O)CCCC[C@@H]1SC[C@@H]2NC(=O)N[C@@H]21)C(N)=O)C(C)C)C(C)C)C(C)C [SEQ ID NO: 1, ssGPREIWDSLVGVVNPGWsr] (H-SSGPREIWDSLVGVVNPGWSRGSSGK(Biotin)-NH2; N-terminus and C-terminus assumed)	GDF-7>GDF-5, BMP-2>BMP-6>BMP-5>TGF-β1, TGF-β3, or PDGF-BB	
peptide conjugate: negative control: biotinylated surface-binding peptide bound to streptavidin, without peptide having binding affinity for growth factor		binding for GDF-7 on suture (GDF-7): no appreciable binding
SWWGFWNGSAAPVWSR [SEQ ID NO: 67]		binding affinity for suture material [1]: showed binding affinity
CC(C)C[C@H](NC(=O)[C@H](C)NC(=O)[C@H](Cc1c[nH]c2ccccc12)NC(=O)CNC(=O)CNC(=O)[C@@H](NC(=O)CNC(=O)CNC(=O)[C@H](CO)NC(=O)[C@@H](N)CO)C(C)C)C(=O)N[C@@H](Cc1ccccc1)C(=O)N[C@@H](CCC(=O)O)C(=O)N[C@H](C(=O)N[C@@H](CC(C)C)C(=O)N[C@@H](CCCNC(=N)N)C(=O)NCC(=O)N[C@@H](CCCCN)C(=O)N[C@@H](CCC(=O)O)C(=O)N[C@H](C(=O)N[C@@H](CO)C(=O)N[C@@H](CCCNC(=N)N)C(=O)NCC(=O)N[C@@H](CO)C(=O)N[C@@H](CO)C(=O)NCC(=O)N[C@@H](CCCCNC(=O)CCCC[C@@H]1SC[C@@H]2NC(=O)N[C@@H]21)C(N)=O)C(C)C)[C@@H](C)O [SEQ ID NO: 2, ssGGVGGWALFETLRGKEVsr] (H-SSGGVGGWALFETLRGKEVSRGSSGK(Biotin)-NH2; N-terminus and C-terminus assumed)	GDF-7>GDF-5, BMP-2, and BMP-6>BMP-5>TGF-β1, TGF-β3, or PDGF-BB	
